Target: T1, ALK2 (Homo sapiens, UniProt Q04771)
T1 construct: purchased ThermoFisher Scientific (Life Technologies)
T1 sequence (Q04771 21-509): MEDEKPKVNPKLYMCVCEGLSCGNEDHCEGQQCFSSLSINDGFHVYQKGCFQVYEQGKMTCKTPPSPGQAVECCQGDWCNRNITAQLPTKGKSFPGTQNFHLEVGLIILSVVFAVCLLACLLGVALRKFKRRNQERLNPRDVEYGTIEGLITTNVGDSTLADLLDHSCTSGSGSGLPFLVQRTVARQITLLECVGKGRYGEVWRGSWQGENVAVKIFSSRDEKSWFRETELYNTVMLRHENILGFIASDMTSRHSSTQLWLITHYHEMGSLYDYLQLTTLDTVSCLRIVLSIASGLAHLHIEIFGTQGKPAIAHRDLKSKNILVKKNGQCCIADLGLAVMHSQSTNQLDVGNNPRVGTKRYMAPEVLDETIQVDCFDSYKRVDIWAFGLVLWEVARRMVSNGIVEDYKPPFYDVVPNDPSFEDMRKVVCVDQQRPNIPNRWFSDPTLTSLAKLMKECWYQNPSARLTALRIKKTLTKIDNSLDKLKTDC
Assay: LanthaScreen Eu Kinase Binding Assay, ALK2 inhibition
Conditions: 1 micromolar concentration
Method: Biochemical assays to measure the inhibitory effects of the compounds were performed by ThermoFisher Scientific (Life Technologies). ALK2 inhibition was tested using LanthaScreen™ Eu Kinase Binding Assay screening protocol.

Row | inhibition at 1 µM [%] | SMILES
1 | > 50 | CC[C@H](C)n1ncc2c(Nc3cn(-c4cc(OC)c(OC)c(OC)c4)cn3)nc(C(C)C)nc21 (single isomer, unassigned) [Compound 22d]
2 | > 50 | COc1cc(-n2cnc(Nc3nc(C(C)C)nc4c3cnn4C3CCOC3)c2)cc(OC)c1OC (stereo not shown) [Compound 21c, 6-isopropyl-1-(tetrahydrofuran-3-yl)-N-(1-(3,4,5-trimethoxyphenyl)-1H-imidazol-4-yl)-1H-pyrazolo[3,4-d]pyrimidin-4-amine]
3 | > 50 | CCn1ncc2c(Nc3cn(-c4cc(OC)c(OC)c(OC)c4)cn3)nc(C(C)C)nc21 [Compound 23c, 1-ethyl-6-isopropyl-N-(1-(3,4,5-trimethoxyphenyl)-1H-imidazol-4-yl)-1H-pyrazolo[3,4-d]pyrimidin-4-amine]
4 | > 50 | COc1cc(-n2cnc(Nc3nc(C(C)C)nc4c3cnn4CC3CCCC3)c2)cc(OC)c1OC [Compound 24c, 1-(cyclopentylmethyl)-6-isopropyl-N-(1-(3,4,5-trimethoxyphenyl)-1H-imidazol-4-yl)-1H-pyrazolo[3,4-d]pyrimidin-4-amine]
5 | > 50 | COc1cc(-n2cnc(Nc3nc(C(F)(F)F)nc4[nH]ncc34)c2)cc(OC)c1OC [Compound 25b, 6-(trifluoromethyl)-N-(1-(3,4,5-trimethoxyphenyl)-1H-imidazol-4-yl)-1H-pyrazolo[3,4-d]pyrimidin-4-amine]
6 | > 50 | COc1cc(-n2cnc(Nc3nc(C(F)(F)F)nc4c3cnn4C(C)C)c2)cc(OC)c1OC [Compound 26a, 1-isopropyl-6-(trifluoromethyl)-N-(1-(3,4,5-trimethoxyphenyl)-1H-imidazol-4-yl)-1H-pyrazolo[3,4-d]pyrimidin-4-amine]
7 | > 50 | C=CCC(C)c1nc(Nc2cn(-c3cc(OC)c(OC)c(OC)c3)cn2)c2cnn(C(C)C)c2n1 (stereo not shown) [Compound 27f, 1-isopropyl-6-(pent-4-en-2-yl)-N-(1-(3,4,5-trimethoxyphenyl)-1H-imidazol-4-yl)-1H-pyrazolo[3,4-d]pyrimidin-4-amine]
8 | > 50 | COc1cc(-n2cnc(Nc3nc(C4CC(F)(F)C4)nc4c3cnn4C(C)C)c2)cc(OC)c1OC [Compound 28e, 6-(3,3-difluorocyclobutyl)-1-isopropyl-N-(1-(3,4,5-trimethoxyphenyl)-1H-imidazol-4-yl)-1H-pyrazolo[3,4-d]pyrimidin-4-amine]
9 | > 50 | CCCC(C)c1nc(Nc2cn(-c3cc(OC)c(OC)c(OC)c3)cn2)c2cnn(C(C)C)c2n1 (stereo not shown) [Compound 29a, 1-isopropyl-6-(pentan-2-yl)-N-(1-(3,4,5-trimethoxyphenyl)-1H-imidazol-4-yl)-1H-pyrazolo[3,4-d]pyrimidin-4-amine]
10 | > 50 | COCCc1nc(Nc2cn(-c3cc(OC)c(OC)c(OC)c3)cn2)c2cnn(C(C)C)c2n1 [Compound 30e, 1-isopropyl-6-(2-methoxyethyl)-N-(1-(3,4,5-trimethoxyphenyl)-1H-imidazol-4-yl)-1H-pyrazolo[3,4-d]pyrimidin-4-amine]
11 | > 50 | COc1cc(-n2cnc(Nc3nc(C)nc4c3cnn4C(C)C)c2)cc(OC)c1OC [Compound 31b, 1-isopropyl-6-methyl-N-(1-(3,4,5-trimethoxyphenyl)-1H-imidazol-4-yl)-1H-pyrazolo[3,4-d]pyrimidin-4-amine]
12 | > 50 | COc1cc(-n2cnc(Nc3nc(C(C)(C)C)nc4c3cnn4C(C)C)c2)cc(OC)c1OC [Compound 32d, 6-(tert-butyl)-1-isopropyl-N-(1-(3,4,5-trimethoxyphenyl)-1H-imidazol-4-yl)-1H-pyrazolo[3,4-d]pyrimidin-4-amine]

Further lines, the compound ahead of its results:

Row | SMILES | inhibition at 1 µM [%]
13 | CC[C@@H](C)n1ncc2c(Nc3cn(-c4cc(OC)c(OC)c(OC)c4)cn3)nc(C(C)C)nc21 (single isomer, unassigned) [Compound 19d] | > 50
14 | COc1cc(-n2cnc(Nc3nc(C(C)C)nc4c3cnn4-c3ccc(F)cc3)c2)cc(OC)c1OC [Compound 1f, 1-(4-fluorophenyl)-6-isopropyl-N-(1-(3,4,5-trimethoxyphenyl)-1H-imidazol-4-yl)-1H-pyrazolo[3,4-d]pyrimidin-4-amine] | > 50
15 | COc1cc(-n2cnc(Nc3nc(C(C)C)nc4c3cnn4C(C)(C)C)c2)cc(OC)c1OC [Compound 2d, 1-(tert-butyl)-6-isopropyl-N-(1-(3,4,5-trimethoxyphenyl)-1H-imidazol-4-yl)-1H-pyrazolo[3,4-d]pyrimidin-4-amine] | > 50
16 | C=C(C)c1nc(Nc2cn(-c3cc(OC)c(OC)c(OC)c3)cn2)c2cnn(C(C)C)c2n1 [Compound 3d, 1-isopropyl-6-(prop-1-en-2-yl)-N-(1-(3,4,5-trimethoxyphenyl)-1H-imidazol-4-yl)-1H-pyrazolo[3,4-d]pyrimidin-4-amine] | > 50
17 | COc1cc(-n2cnc(Nc3nc(C(C)C)nc4c3cnn4C(C)C)c2)cc(OC)c1OC [Compound 4a, 1,6-diisopropyl-N-(1-(3,4,5-trimethoxyphenyl)-1H-imidazol-4-yl)-1H-pyrazolo[3,4-d]pyrimidin-4-amine] | > 50
18 | COc1cc(-n2cnc(Nc3nc(C=C(C)C)nc4c3cnn4C(C)C)c2)cc(OC)c1OC [Compound 5b, 1-isopropyl-6-(2-methylprop-1-en-1-yl)-N-(1-(3,4,5-trimethoxyphenyl)-1H-imidazol-4-yl)-1H-pyrazolo[3,4-d]pyrimidin-4-amine] | > 50
19 | COc1cc(-n2cnc(Nc3nc(CC(C)C)nc4c3cnn4C(C)C)c2)cc(OC)c1OC [Compound 6a, 6-isobutyl-1-isopropyl-N-(1-(3,4,5-trimethoxyphenyl)-1H-imidazol-4-yl)-1H-pyrazolo[3,4-d]pyrimidin-4-amine] | > 50
20 | COc1cc(-n2cnc(Nc3nc(C4CC4)nc4c3cnn4C(C)C)c2)cc(OC)c1OC [Compound 7e, 6-cyclopropyl-1-isopropyl-N-(1-(3,4,5-trimethoxyphenyl)-1H-imidazol-4-yl)-1H-pyrazolo[3,4-d]pyrimidin-4-amine] | > 50
21 | COc1cc(-n2cnc(Nc3nc(C(C)C)c4cnn(C(C)C)c4n3)c2)cc(OC)c1OC [Compound 8b, 1,4-diisopropyl-N-(1-(3,4,5-trimethoxyphenyl)-1H-imidazol-4-yl)-1H-pyrazolo[3,4-d]pyrimidin-6-amine] | > 50
22 | COc1cc(-n2cnc(Nc3nc(C(C)(C)C)c4cnn(C(C)C)c4n3)c2)cc(OC)c1OC [Compound 9b, 4-(tert-butyl)-1-isopropyl-N-(1-(3,4,5-trimethoxyphenyl)-1H-imidazol-4-yl)-1H-pyrazolo[3,4-d]pyrimidin-6-amine] | > 50
23 | COc1cc(-n2cnc(Nc3nc(C)c4cnn(C(C)C)c4n3)c2)cc(OC)c1OC [Compound 11b, 1-isopropyl-4-methyl-N-(1-(3,4,5-trimethoxyphenyl)-1H-imidazol-4-yl)-1H-pyrazolo[3,4-d]pyrimidin-6-amine] | > 50
24 | COc1cc(-n2cnc(Nc3nc(C4CCCCC4)c4cnn(C(C)C)c4n3)c2)cc(OC)c1OC [Compound 12b, 4-cyclohexyl-1-isopropyl-N-(1-(3,4,5-trimethoxyphenyl)-1H-imidazol-4-yl)-1H-pyrazolo[3,4-d]pyrimidin-6-amine] | > 50
25 | COc1cc(-n2cnc(Nc3nc(C4CC4)c4cnn(C(C)C)c4n3)c2)cc(OC)c1OC [Compound 13b, 4-cyclopropyl-1-isopropyl-N-(1-(3,4,5-trimethoxyphenyl)-1H-imidazol-4-yl)-1H-pyrazolo[3,4-d]pyrimidin-6-amine] | > 50
26 | COc1cc(-n2cnc(Nc3nc(C(C)C)nc4c3cnn4C3CC3)c2)cc(OC)c1OC [Compound 14f, 1-cyclopropyl-6-isopropyl-N-(1-(3,4,5-trimethoxyphenyl)-1H-imidazol-4-yl)-1H-pyrazolo[3,4-d]pyrimidin-4-amine] | > 50
27 | CCCC(C)n1ncc2c(Nc3cn(-c4cc(OC)c(OC)c(OC)c4)cn3)nc(C(C)C)nc21 (stereo not shown) [Compound 15e, 6-isopropyl-1-(pentan-2-yl)-N-(1-(3,4,5-trimethoxyphenyl)-1H-imidazol-4-yl)-1H-pyrazolo[3,4-d]pyrimidin-4-amine] | > 50
28 | CCCCCn1ncc2c(Nc3cn(-c4cc(OC)c(OC)c(OC)c4)cn3)nc(C(C)C)nc21 [Compound 16c, 6-isopropyl-1-pentyl-N-(1-(3,4,5-trimethoxyphenyl)-1H-imidazol-4-yl)-1H-pyrazolo[3,4-d]pyrimidin-4-amine] | > 50
29 | COc1cc(-n2cnc(Nc3nc(C(C)C)nc4c3cnn4CC3CC3)c2)cc(OC)c1OC [Compound 17c, 1-(cyclopropylmethyl)-6-isopropyl-N-(1-(3,4,5-trimethoxyphenyl)-1H-imidazol-4-yl)-1H-pyrazolo[3,4-d]pyrimidin-4-amine] | > 50
30 | COc1cc(-n2cnc(Nc3nc(C(C)C)nc4c3cnn4C3CCCC3)c2)cc(OC)c1OC [Compound 18c, 1-cyclopentyl-6-isopropyl-N-(1-(3,4,5-trimethoxyphenyl)-1H-imidazol-4-yl)-1H-pyrazolo[3,4-d]pyrimidin-4-amine] | > 50
31 | COc1cc(-n2cnc(Nc3nc(C(C)C)nc4c3cnn4CC(C)C)c2)cc(OC)c1OC [Compound 20c, 1-isobutyl-6-isopropyl-N-(1-(3,4,5-trimethoxyphenyl)-1H-imidazol-4-yl)-1H-pyrazolo[3,4-d]pyrimidin-4-amine] | > 50

Source: patent US20240270750A1, “IMIDAZOLE-CONTAINING INHIBITORS OF ALK2 KINASE” (BioCryst Pharmaceuticals, Inc., priority 2021, published 2024)
